Test results reported in patent publication US20250185657A1, “PEST CONTROLLING AGENT” (priority 2022, published 2025).

Assays:
Assay type in all cases: in vivo
[1] = system: Tobacco Cutworm (Spodoptera litura); experiment: Tobacco cutworm control test (leaf piece dipping treatment); settings: 120 h, cabbage leaf piece dipped, second instar larvae, five days after the treatment, 25° C., read-out: insect mortality rate
Method: (§1) The insect mortality rate and the feeding damage prevention effect shown in the Biological Test Examples were calculated based on the following expression.
Biological Test Example 5: Tobacco Cutworm (Spodoptera litura) Control Test (Leaf Piece Dipping Treatment)
(§2) A cabbage leaf was cut into a piece having a diameter of 5.0 cm, and this cabbage leaf piece was immersed in 20 mL of a diluted solution of the test compound diluted to 200 ppm, and air-dried. After air-drying, the cabbage leaf piece was placed in a plastic cup, 5 second instar tobacco cutworm larvae were released thereinto, the cup was covered with a lid, and the larvae were reared in a constant temperature chamber at 25° C.

[2] = system: Diamondback Moth (Plutella xylostella); experiment: Diamondback moth control test (leaf piece dipping treatment); settings: 120 h, cabbage leaf piece dipped, third instar, five days after the treatment, 25° C., read-out: insect mortality rate
Method: as §1
Biological Test Example 3: Diamondback Moth (Plutella xylostella) Control Test (Leaf Piece Dipping Treatment)
as §2, with “10 third” for “5 second”, “diamondback moth nymphs” for “tobacco cutworm larvae”, “nymphs” for “larvae”

[3] = system: Cotton Aphid (Aphis gossypii); experiment: Cotton aphid control test (leaf piece application treatment); settings: 120 h, sprayed on cucumber leaf piece, nymphs, five days after the treatment, 25° C., read-out: insect mortality rate
Method: as §1
Biological Test Example 1: Cotton Aphid (Aphis gossypii) Control Test (Leaf Piece Application Treatment)
A cucumber leaf was cut into a piece having a diameter of 3.5 cm and placed on absorbent cotton moistened with water. Two adult cotton aphids were released thereon, and allowed to lay nymphs for 24 hours, and then the adults were removed. 2 mL of a diluted solution of the test compound diluted to 200 ppm was applied onto the resulting cucumber leaf by using an spray tower. The cucumber leaf was air-dried and then placed in a plastic cup together with the absorbent cotton, the cup was covered with a lid, and the nymphs were reared in a constant temperature chamber at 25° C.

Compound	mortality at 200 ppm [1] [%]	mortality at 200 ppm [2] [%]	mortality at 200 ppm [3] [%]
CN(C)S(=O)(=O)c1cc(-c2ccc(OC(F)(F)F)cc2)cnc1-c1noc(=O)n1-c1ccc(C(F)(F)F)cn1 [Compound 195, N,N-dimethyl-2-(5-oxo-4-(5-(trifluoromethyl)pyridin-2-yl)-4,5-dihydro-1,2,4-oxadiazol-3-yl)-5-(4-(trifluoromethoxy)phenyl)pyridine-3-sulfonamide]	≥ 80	≥ 80	–
CCS(=O)(=O)c1cc(-c2ccc(F)cc2)cnc1C1=NOCCN1c1ccc(C(F)(F)F)cn1 [Compound 29, 3-(3-(ethylsulfonyl)-5-(4-fluorophenyl)pyridin-2-yl)-4-(5-(trifluoromethyl)pyridin-2-yl)-5,6-dihydro-4H-1,2,4-oxadiazine]	≥ 80	≥ 80	≥ 80
CCS(=O)(=O)c1cc(-c2ccc(F)cc2)cnc1-c1noc(=O)n1-c1ccc(C(F)(F)F)cn1 [Compound 2, 3-(3-(ethylsulfonyl)-5-(4-fluorophenyl)pyridin-2-yl)-4-(5-(trifluoromethyl)pyridin-2-yl)-1,2,4-oxadiazol-5(4H)-one]	≥ 80	≥ 80	≥ 80
CCS(=O)(=O)c1cc(-c2ccc(F)cc2)cnc1-c1noc(=S)n1-c1ccc(C(F)(F)F)cn1 [Compound 18, 3-(3-(ethylsulfonyl)-5-(4-fluorophenyl)pyridin-2-yl)-4-(5-(trifluoromethyl)pyridin-2-yl)-1,2,4-oxadiazol-5(4H)-thione]	≥ 80	≥ 80	≥ 80
CCS(=O)(=O)c1cc(-c2ccc(F)cc2)cnc1C1=NOCN1c1ccc(C(F)(F)F)cn1 [Compound 27, 3-(3-(ethylsulfonyl)-5-(4-fluorophenyl)pyridin-2-yl)-4-(5-(trifluoromethyl)pyridin-2-yl)-4,5-dihydro-1,2,4-oxadiazole]	≥ 80	≥ 80	–
CCS(=O)(=O)c1cc(-c2ccc(OC(F)(F)F)cc2)cnc1-c1noc(=O)n1-c1ccc(C(F)(F)F)cn1 [Compound 4, 3-(3-(ethylsulfonyl)-5-(4-(trifluoromethoxy)phenyl)pyridin-2-yl)-4-(5-(trifluoromethyl)pyridin-2-yl)-1,2,4-oxadiazol-5(4H)-one]	≥ 80	≥ 80	≥ 80
CCS(=O)(=O)c1cc(-c2ccc(F)cc2)cnc1C1=NC(=COC)C(=O)N1c1ccc(C(F)(F)F)cn1 [Compound 34]	–	≥ 80	–
